Tests used:
[1] = in vivo; cited from earlier work
[2] = test system: autoreceptor; conditions: low doses; cited from earlier work
[3] = test system: DA autoreceptors; test: Spontaneous locomotor activity in non-pretreated rats; assay type: in vivo, rat; conditions: non-pretreated rats
Experimental: Untreated animals exposed to a new environment display an initial high motor activity which then gradually declines over a period of time. Administration of DA-receptor agonists (e.g. apomorphine) in doses where preferential autoreceptor stimulation is likely to occur, causes a depression of the spontaneous motility mentioned above, considered to be due to the DA autoreceptor-medicated attenuation of central DA transmission.
Rats (150-300 g) were injected subcutaneously with compound 2,5-OH-DPAT or apomorphine and after 5 minutes they were individually placed in motility boxes ("M/P 40 Fc Electronic Motility Meter". Motron Products, Stockholm) and the motor activity (0-30 min) was quantified. […] These findings are in congruence with the results obtained with the selective DA-autoreceptor agonist 3-PPP [S. Hjorth t al., Life Sciences, 28, 1225 (1981)] but in sharp contrast to the results obtained with 5-OH-DPAT and apomorphine (Table III).
Non-pretreated rats were given compound -2 (0.0625-16.0 mg/kg),
5OH--2-(di-n-propylamino) tetralin (5OH--DPAT; 0.0125-0.05 mg/kg,
apomorphine (0.1-1.0 mg/kg) or saline subcutaneously. Five minutes later
they were placed individually into motility meters and the locomotor

[4] = test system: central DA-receptor (pre- and/or postsynaptic); conditions: reserpine-pretreated rats, s.c., cited from earlier work
[5] = test system: postsynaptic DA receptors; test: Antagonism of the reserpine plus α-methyl-para-tyrosine-induced immobility (neuroleptic syndrome) in rats; motor activity

Row | SMILES | actions stated in CA 79: 146294b [1] | effects demonstrated in man [2] | Locomotor activity ([3]; 0.1 mg/kg s.c.) [counts 0.30 min] | Locomotor activity ([3]; 1.0 mg/kg s.c.) [counts 0.30 min] | effect on locomotor activity, in words ([3]; s.c.) | Dopa-accumulation; ED50, Limbic (taken from Hacksell et al., J. Med. Chem. 22, 1469 (1979)) ([4]; limbic forebrain) [μmol/kg s.c.] | Dopa-accumulation; ED50, Striatum (taken from Hacksell et al., J. Med. Chem. 22, 1469 (1979)) ([4]; striatum) [μmol/kg s.c.] | Motor activity ([5]; 1 mg/kg s.c., reserpine 10 mg/kg + α-methyl-para-tyrosine 250 mg/kg i.p., means ± s.e.m.) [counts 0-60 min] | motor response / postsynaptic DA-receptor stimulatory effects ([5]; comparative study, Table II, s.c.) | antagonism of the reserpine-induced syndrome / behaviour elicited ([5]; reserpine and α-methyl-para-tyrosine pretreated rats)
1 | CN(C)C1CCc2ccc(O)cc2C1(C)C (stereo not shown) [1,1-Dimethyl-2-(N,N-dimethylamino)-7-hydroxytetralin] | analgesic and intestinal movement accelerating actions |  |  |  |  |  |  |  |  | 
2 | CN1CCc2cccc3c2[C@H]1Cc1ccc(O)c(O)c1-3 [Apomorphine] |  | "paradoxical" antipsychotic and antidyskinetic effects | 134 ± 9 | 439 ± 67 | lower doses significantly suppressing and higher dosess significantly stimulating the rat locomotor activity | 0.19 | 0.22 | 517 ± 56 | strong central postsynaptic DA-receptor stimulatory effects | pronounced stereotyped and hyperactive behaviour

Reference: patent US4876284A, “1-alkyl-2-aminotetralin derivatives” (Per Arvid Emil Carlsson, priority 1981, dated 1989)
